Laboratory results from paper PMC8807399, “Synthesis, Characterization, and in vivo Evaluation of a Novel Potent Autotaxin-Inhibitor” (Frontiers in Pharmacology, 2022).

Experiments:
ACE = target: T1, ACE (Homo sapiens, UniProt P12821); assay: Off-target screen ACE; assay type: biochemical; details: 10 µM; single point, duplicates
T1 construct: purchased Eurofins CEREP SA

Prostaglandin F receptor = target: T2, Prostaglandin F receptor (Homo sapiens, UniProt P43088); assay: Off-target screen Prostaglandin F receptor; assay type: binding; details: 10 µM; single point, duplicates
T2 construct: purchased Eurofins CEREP SA
T2 sequence (P43088 whole entry): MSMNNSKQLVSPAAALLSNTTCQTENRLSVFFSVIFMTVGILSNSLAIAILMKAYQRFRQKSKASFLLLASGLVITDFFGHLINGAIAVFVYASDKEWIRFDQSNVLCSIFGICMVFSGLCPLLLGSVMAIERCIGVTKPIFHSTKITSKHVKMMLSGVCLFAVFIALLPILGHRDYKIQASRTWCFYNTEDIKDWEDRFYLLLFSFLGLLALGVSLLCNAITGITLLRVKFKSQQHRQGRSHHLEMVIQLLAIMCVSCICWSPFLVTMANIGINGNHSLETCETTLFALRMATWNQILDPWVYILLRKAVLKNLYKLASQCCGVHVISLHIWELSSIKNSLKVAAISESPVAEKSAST

Xanthine oxidase = target: T3, Xanthine oxidase (Bos taurus, UniProt P80457); assay: Off-target screen Xanthine oxidase; assay type: biochemical, b; details: 10 µM; single point, duplicates
T3 construct: purchased Eurofins CEREP SA
T3 sequence (P80457 2-1332): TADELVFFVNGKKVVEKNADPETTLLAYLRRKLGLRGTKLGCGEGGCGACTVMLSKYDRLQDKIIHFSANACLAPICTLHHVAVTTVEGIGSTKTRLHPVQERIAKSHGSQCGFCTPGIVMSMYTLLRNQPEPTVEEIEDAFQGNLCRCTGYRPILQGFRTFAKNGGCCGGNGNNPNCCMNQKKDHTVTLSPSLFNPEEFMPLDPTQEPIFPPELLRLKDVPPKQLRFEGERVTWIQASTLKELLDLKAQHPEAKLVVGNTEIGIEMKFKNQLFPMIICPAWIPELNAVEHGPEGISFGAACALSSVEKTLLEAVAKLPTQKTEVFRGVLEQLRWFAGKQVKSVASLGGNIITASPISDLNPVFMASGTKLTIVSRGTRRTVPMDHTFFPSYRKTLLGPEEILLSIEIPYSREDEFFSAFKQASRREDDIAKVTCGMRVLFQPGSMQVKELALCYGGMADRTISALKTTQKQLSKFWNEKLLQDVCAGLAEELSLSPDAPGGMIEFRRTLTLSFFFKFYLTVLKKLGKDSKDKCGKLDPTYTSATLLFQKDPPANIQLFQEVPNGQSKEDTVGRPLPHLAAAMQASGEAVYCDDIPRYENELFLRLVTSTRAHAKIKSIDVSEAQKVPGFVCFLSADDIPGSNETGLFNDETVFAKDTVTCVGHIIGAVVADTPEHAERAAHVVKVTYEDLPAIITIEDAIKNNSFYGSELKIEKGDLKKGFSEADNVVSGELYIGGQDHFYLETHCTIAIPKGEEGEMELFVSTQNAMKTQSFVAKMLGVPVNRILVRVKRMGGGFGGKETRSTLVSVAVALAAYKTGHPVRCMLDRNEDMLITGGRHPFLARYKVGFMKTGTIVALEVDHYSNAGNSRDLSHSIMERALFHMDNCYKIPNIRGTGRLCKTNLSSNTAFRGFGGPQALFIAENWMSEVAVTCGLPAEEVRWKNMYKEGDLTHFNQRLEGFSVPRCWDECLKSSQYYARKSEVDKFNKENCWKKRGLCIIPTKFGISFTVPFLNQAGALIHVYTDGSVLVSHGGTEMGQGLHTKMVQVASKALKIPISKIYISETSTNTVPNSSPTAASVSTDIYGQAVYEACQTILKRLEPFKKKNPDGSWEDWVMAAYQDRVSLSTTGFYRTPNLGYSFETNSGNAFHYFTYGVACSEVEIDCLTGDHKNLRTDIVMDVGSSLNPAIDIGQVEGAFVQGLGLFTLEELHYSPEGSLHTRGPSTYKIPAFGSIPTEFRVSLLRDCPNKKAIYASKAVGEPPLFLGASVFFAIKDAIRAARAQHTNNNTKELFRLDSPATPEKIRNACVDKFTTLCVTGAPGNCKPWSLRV

Muscarinic receptor M2 = target: T4, Muscarinic receptor M2 (Homo sapiens, UniProt P08172); assay: Off-target screen Muscarinic M2; assay type: binding; details: 10 µM; single point, duplicates
T4 construct: purchased Eurofins CEREP SA

5HT1A = target: T5, 5HT1A (Homo sapiens, UniProt P08908); assay: Off-target screen 5HT1A; assay type: binding; details: 10 µM; single point, duplicates
T5 construct: purchased Eurofins CEREP SA

mu opioid receptor = target: T6, mu opioid receptor (Homo sapiens, UniProt P35372); assay: Off-target screen mu opioid receptor; assay type: binding; details: 10 µM; single point, duplicates
T6 construct: purchased Eurofins CEREP SA

kappa opioid receptor = target: T7, kappa opioid receptor (Rattus norvegicus, UniProt P34975); assay: Off-target screen kappa opioid receptor; assay type: binding; details: 10 µM; single point, duplicates
T7 construct: purchased Eurofins CEREP SA

[1] = In vitro microsomal stability, mouse; assay type: in vitro ADME; details: mouse microsomes, 1 µM; value of 10 = low clearance, essentially below detection limit
Method: (§1) Incubations of a test compound at a concentration of 1 µM with microsomes (0.5 mg/ml) from the appropriate species (human, mouse, or rat) plus cofactor NADPH were performed in 96-well plates at 37°C on a TECAN automated liquid handling system (Tecan Group Ltd., Männedorf, Switzerland). After pre-incubation of the test compound with the microsomes for 10 min, the enzymatic reaction was started by the addition of cofactors. Aliquots of the incubations are removed at 1, 3, 6, 9, 15, 25, 35, and 45 min and are then quenched with 1:3 (v/v) acetonitrile containing internal standards. Samples were then cooled and centrifuged before analysis of the supernatant by LC-MS/MS. Logarithmic Peak area ratios (test compound peak area/internal standard peak area) were plotted against incubation time and a linear fit made to the data with emphasis upon the initial rate of compound disappearance. The slope of the fit was then used to calculate the intrinsic clearance: Clint (µL/min/mg protein) = −slope (min-1) * 1,000/[protein concentration (mg/ml)].

5HT3 = target: T8, 5HT3 (Homo sapiens, UniProt P46098); assay: Off-target screen 5HT3; assay type: binding; details: 10 µM; single point, duplicates
T8 construct: purchased Eurofins CEREP SA

Carbonic anhdrase II = target: T9, Carbonic anhdrase II (Homo sapiens, UniProt P00918); assay: Off-target screen Carbonic anhydrase II; assay type: biochemical; details: 10 µM; single point, duplicates
T9 construct: purchased Eurofins CEREP SA

Cyclooxygenase 2 = target: T10, Cyclooxygenase 2 (Homo sapiens, UniProt P35354); assay: Off-target screen Cyclooxygenase 2; assay type: biochemical; details: 10 µM; single point, duplicates
T10 construct: purchased Eurofins CEREP SA

[2] = In vitro microsomal stability, human; assay type: in vitro ADME; details: human microsomes, 1 µM; value of 10 = low clearance, essentially below detection limit
Method: as §1

Single dose PK in rats = assay type: in vivo; details: rat
Method: Exposures in animals treated with ATX-inhibitors were determined from K2EDTA treated plasma by LC-MS/MS at different time points. 25 µL of plasma was used for a single concentration determination. Concentration/time profiles were analyzed with MS Excel (Microsoft Corporation, Redmond, WA, United States).
For PK experiments for 7, 13, 14, and 15, respectively, animals were treated either iv or po and exposures were determined at different time points after compound administration. Suitable formulations for 13 were, for example, NMP:Tris buffer pH 8.5 (30%/70%) for iv administration with a nominal drug concentration of 1 mg/ml (dose 2 mg/kg) and a suspension in NMP:gelatine/NaCl (10%/90%) for po administration with a nominal drug concentration of 2.5 mg/ml (dose 10 mg/kg). PK parameters in Table 2 were estimated from the concentration time profiles using Phoenix WinNonlin software (Certara, Princeton, NJ, United States).

Somatostatin receptor 4 = target: T11, Somatostatin receptor 4 (Homo sapiens, UniProt P31391); assay: Off-target screen Somatostatin receptor 4; assay type: binding; details: 10 µM; single point, duplicates
T11 construct: purchased Eurofins CEREP SA

PDE-5 = target: T12, PDE-5 (Homo sapiens, UniProt O76074); assay: Off-target screen PDE-5; assay type: biochemical; details: 10 µM; single point, duplicates
T12 construct: purchased Eurofins CEREP SA

HDAC3 = target: T13, HDAC3 (Homo sapiens, UniProt O15379); assay: Off-target screen HDAC3; assay type: biochemical; details: 10 µM; single point, duplicates
T13 construct: purchased Eurofins CEREP SA
T13 sequence (O15379 whole entry): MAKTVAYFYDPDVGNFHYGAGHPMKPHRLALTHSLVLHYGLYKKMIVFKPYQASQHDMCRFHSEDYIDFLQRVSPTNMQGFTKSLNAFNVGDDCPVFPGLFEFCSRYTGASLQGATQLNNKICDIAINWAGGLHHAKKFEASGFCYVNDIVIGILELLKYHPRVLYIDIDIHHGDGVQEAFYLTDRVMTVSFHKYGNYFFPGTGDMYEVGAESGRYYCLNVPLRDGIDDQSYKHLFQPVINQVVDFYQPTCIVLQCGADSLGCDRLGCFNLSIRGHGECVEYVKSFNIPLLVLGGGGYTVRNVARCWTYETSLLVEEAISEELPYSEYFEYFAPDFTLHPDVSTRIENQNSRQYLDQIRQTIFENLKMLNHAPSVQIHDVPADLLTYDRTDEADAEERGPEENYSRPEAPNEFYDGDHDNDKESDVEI
T13 sequence (Q9Y618 395-489 partner limits assumed): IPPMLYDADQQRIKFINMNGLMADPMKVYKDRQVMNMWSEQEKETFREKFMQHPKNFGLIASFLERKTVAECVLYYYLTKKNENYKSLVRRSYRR

5HT2B = target: T14, 5HT2B (Homo sapiens, UniProt P41595); assay: Off-target screen 5HT2B; assay type: binding; details: 10 µM; single point, duplicates
T14 construct: purchased Eurofins CEREP SA
T14 sequence (P41595 whole entry): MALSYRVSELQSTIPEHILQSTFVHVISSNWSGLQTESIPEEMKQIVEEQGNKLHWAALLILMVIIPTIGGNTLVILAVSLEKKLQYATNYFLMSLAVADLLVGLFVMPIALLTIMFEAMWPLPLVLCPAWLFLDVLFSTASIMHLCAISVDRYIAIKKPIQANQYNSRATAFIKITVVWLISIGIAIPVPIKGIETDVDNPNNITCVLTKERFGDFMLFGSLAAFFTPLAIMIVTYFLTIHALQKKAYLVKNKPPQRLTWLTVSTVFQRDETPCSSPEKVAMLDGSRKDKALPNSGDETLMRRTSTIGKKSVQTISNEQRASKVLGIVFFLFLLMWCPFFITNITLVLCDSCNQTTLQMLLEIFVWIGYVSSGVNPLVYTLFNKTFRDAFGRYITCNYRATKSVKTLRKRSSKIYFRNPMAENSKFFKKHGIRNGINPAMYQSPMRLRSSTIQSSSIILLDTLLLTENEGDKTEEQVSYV

[3] = In vitro microsomal stability, rat; assay type: in vitro ADME; details: rat microsomes, 1 µM; value of 10 = low clearance, essentially below detection limit
Method: as §1

Histamine H1 receptor = target: T15, Histamine H1 receptor (Homo sapiens, UniProt P35367); assay: Off-target screen Histamine H1; assay type: binding; details: 10 µM; single point, duplicates
T15 construct: purchased Eurofins CEREP SA

PPARγ = target: T16, PPARγ (Homo sapiens, UniProt P37231); assay: Off-target screen PPARγ, agonist mode; assay type: cell-based; details: 10 µM, single point, duplicates
T16 construct: purchased Eurofins CEREP SA

GSK-3A = target: T17, GSK-3A (Homo sapiens, UniProt P49840); assay: Off-target screen GSK-3A; assay type: biochemical; details: 10 µM; single point, duplicates
T17 construct: purchased Eurofins CEREP SA

Adenosine A1 respetor = target: T18, Adenosine A1 respetor (Homo sapiens, UniProt P30542); assay: Off-target screen Adenosine A1; assay type: binding; details: 10 µM; single point, duplicates
T18 construct: purchased Eurofins CEREP SA
T18 sequence (P30542 whole entry): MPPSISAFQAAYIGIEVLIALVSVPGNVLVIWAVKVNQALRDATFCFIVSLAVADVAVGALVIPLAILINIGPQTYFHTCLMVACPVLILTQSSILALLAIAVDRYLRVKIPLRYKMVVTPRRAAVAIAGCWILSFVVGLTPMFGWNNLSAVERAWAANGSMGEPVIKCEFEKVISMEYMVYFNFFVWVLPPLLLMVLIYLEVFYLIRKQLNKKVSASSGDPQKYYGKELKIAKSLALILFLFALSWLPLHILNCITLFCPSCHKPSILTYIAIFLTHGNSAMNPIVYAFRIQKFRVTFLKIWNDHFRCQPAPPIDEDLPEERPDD

Alpha2A-adrenoreceptor = target: T19, Alpha2A-adrenoreceptor (Homo sapiens, UniProt P08913); assay: Off-target screen Alpha2A-adrenoreceptor; assay type: binding; details: 10 µM; single point, duplicates
T19 construct: purchased Eurofins CEREP SA
T19 sequence (P08913 whole entry): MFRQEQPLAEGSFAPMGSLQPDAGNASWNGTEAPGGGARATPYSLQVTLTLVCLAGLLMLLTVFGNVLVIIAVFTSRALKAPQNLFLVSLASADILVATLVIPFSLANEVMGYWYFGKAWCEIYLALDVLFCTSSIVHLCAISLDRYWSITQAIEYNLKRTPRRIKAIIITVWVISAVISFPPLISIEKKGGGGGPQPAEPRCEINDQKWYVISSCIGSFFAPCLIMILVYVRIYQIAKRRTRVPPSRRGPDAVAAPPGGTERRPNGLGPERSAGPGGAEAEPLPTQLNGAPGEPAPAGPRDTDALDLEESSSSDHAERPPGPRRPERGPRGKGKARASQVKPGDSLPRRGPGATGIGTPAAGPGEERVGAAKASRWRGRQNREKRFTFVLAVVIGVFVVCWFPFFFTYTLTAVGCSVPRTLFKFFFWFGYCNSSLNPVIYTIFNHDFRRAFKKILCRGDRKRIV

Beta1-adrenoreceptor = target: T20, Beta1-adrenoreceptor (Homo sapiens, UniProt P08588); assay: Off-target screen Beta1-adrenoreceptor; assay type: binding; details: 10 µM; single point, duplicates
T20 construct: purchased Eurofins CEREP SA
T20 sequence (P08588 whole entry): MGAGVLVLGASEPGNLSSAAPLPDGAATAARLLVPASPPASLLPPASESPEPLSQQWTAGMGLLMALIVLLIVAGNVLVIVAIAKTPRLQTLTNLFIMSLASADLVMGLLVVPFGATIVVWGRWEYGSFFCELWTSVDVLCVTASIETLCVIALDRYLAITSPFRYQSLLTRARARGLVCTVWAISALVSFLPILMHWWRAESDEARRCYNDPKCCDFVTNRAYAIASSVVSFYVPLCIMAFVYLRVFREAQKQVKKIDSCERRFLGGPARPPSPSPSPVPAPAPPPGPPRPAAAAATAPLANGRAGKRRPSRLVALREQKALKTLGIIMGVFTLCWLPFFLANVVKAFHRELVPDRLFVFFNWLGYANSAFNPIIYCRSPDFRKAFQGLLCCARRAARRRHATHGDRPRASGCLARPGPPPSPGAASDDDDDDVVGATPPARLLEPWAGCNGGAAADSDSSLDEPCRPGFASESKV

Dopamine D2 receptor = target: T21, Dopamine D2 receptor (Homo sapiens, UniProt P14416); assay: Off-target screen Dopamine D2; assay type: binding; details: 10 µM; single point, duplicates
T21 construct: purchased Eurofins CEREP SA

plasma ATX = plasma ATX (Rattus norvegicus, UniProt Q64610); assay: in vivo
Method: Plasma samples were collected in triplicates at 0, 1, 3, 6, and 24 h and were added to heparinated tubes and kept at 0°C until further processing. Sampling and immediate processing at 0°C is crucial for the measurements of basal levels, since at higher temperatures, LPA is produced rapidly according to the ATX activity in the sample. […] The other 2 aliquots were used to determine ATX activity by incubation of the sample at 37°C for 4 h, followed again by analysis of LPA levels in the same way as for the basal LPA levels.
For all doses (3, 10, and 30 mg/kg po), 5 animals/group were used. […] Values are mean ± SD.
To better observe the modulation of the individual LPA species, a second set of plasma samples was incubated at 37°C for 2 h prior to LC/MS analysis.

[4] = target: T22, Angiotensin II receptor 1 (Homo sapiens, UniProt P30556); assay: Off-target screen Angiotensin II receptor 1; assay type: binding; details: 10 µM; single point, duplicates
T22 construct: purchased Eurofins CEREP SA

S1P3 = target: T23, S1P3 (Homo sapiens, UniProt Q99500); assay: Off-target screen S1P3, agonist mode; assay type: cell-based; details: 10 µM, single point, duplicates
T23 construct: purchased Eurofins CEREP SA
T23 sequence (Q99500 whole entry): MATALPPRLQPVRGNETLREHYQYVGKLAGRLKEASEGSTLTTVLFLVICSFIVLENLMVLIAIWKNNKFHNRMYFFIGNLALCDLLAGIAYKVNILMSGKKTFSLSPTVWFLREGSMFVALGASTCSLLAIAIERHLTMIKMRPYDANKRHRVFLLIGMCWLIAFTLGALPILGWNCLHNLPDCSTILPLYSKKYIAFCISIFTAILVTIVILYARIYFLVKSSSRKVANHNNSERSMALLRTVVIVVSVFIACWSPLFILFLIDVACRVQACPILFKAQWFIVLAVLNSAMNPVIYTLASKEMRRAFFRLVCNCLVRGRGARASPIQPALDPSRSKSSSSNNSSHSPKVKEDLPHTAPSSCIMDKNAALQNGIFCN

MAO-A = target: T24, MAO-A (Homo sapiens, UniProt P21397); assay: Off-target screen MAO-A; assay type: biochemical; details: 10 µM; single point, duplicates
T24 construct: purchased Eurofins CEREP SA
T24 sequence (P21397 whole entry): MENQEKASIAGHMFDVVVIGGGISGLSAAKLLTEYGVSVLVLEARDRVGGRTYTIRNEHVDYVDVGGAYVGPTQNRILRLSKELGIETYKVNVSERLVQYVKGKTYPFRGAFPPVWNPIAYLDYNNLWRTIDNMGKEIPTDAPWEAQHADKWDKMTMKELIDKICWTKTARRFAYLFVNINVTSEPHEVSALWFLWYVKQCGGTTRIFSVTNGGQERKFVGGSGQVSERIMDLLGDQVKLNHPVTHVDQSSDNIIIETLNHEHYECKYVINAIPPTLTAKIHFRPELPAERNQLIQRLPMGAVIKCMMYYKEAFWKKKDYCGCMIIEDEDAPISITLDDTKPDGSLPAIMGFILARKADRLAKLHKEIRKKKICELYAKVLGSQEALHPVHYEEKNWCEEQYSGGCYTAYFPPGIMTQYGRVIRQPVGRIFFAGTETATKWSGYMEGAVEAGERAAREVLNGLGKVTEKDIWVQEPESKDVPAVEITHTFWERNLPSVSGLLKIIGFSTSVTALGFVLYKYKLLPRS

Sigma = assay: Off-target screen Sigma; details: 10 µM; single point, duplicates
[5] = plasma, po, 20 mg/kg/day, food admix (FA), 20 mg/kg per day

In the case of `O=C(OCc1ccc(OC(F)(F)F)cc1)N1C[C@@H]2CN(C(=O)c3ccc4[nH]nnc4c3)C[C@H]2C1` [Compound 13, (3aS,6aS)-5-(1H-Benzotriazole-5-carbonyl)-hexahydro-pyrrolo[3,4-c]pyrrole-2-carboxylic acid 4-trifluoromethoxy-benzyl ester], the “ACE (h) [% inhib]” value (ACE) is reported as -25 % inhib, the “Prostaglandin F receptor (h) [% inhib]” value (Prostaglandin F receptor) is reported as 26 % inhib and the “Xanthine oxidase (b) [% inhib]” value (Xanthine oxidase) is reported as 7 % inhib. The “Muscarinic receptor M2 (h) [% inhib]” value (Muscarinic receptor M2) was -15 % inhib, the “5HT1A (h) [% inhib]” value (5HT1A) was -20 % inhib and the “mu opioid receptor (h) [% inhib]” value (mu opioid receptor) was 15 % inhib. The “kappa opioid receptor (r) [% inhib]” value (kappa opioid receptor) was -1 % inhib, the “Mic CL m” value [1] was 10/10/10 µL/m/mg prot and the “5HT3 (h) [% inhib]” value (5HT3) was -2 % inhib. For the same molecule, the “Carbonic anhdrase II (h) [% inhib]” value (Carbonic anhdrase II) was -6 % inhib, the “Cyclooxygenase 2 (h) [% inhib]” value (Cyclooxygenase 2) was 1 % inhib and the “Mic CL h” value [2] was 10/10/10 µL/m/mg prot. It also gave an AUC(0-inf) (Single dose PK in rats; [5]) of 260 µg·h/mL, a Cmax (Single dose PK in rats; [5]) of 2980 ng/mL and a Tmax (Single dose PK in rats; [5]) of 17 h. For the same molecule, the half-life (Single dose PK in rats; [5]) was 13 h, the AUC(0-inf) (Single dose PK in rats; plasma, iv bolus, 2 mg/kg) was 21 µg·h/mL and the half-life (Single dose PK in rats; plasma, iv bolus, 2 mg/kg) was 2.6 h. For the same molecule, the clearance (Single dose PK in rats; plasma, iv bolus, 2 mg/kg, read-out: CLp) was 1.6 mL/min/kg, the Vd (Single dose PK in rats; plasma, iv bolus, 2 mg/kg, read-out: Vdss) was 0.3 L/kg and the AUC(0-inf) (Single dose PK in rats; plasma, oral gavage, 10 mg/kg) was 130 µg·h/mL. For the same molecule, the Cmax (Single dose PK in rats; plasma, oral gavage, 10 mg/kg) was 17700 ng/mL, the Tmax (Single dose PK in rats; plasma, oral gavage, 10 mg/kg) was 0.75 h and the half-life (Single dose PK in rats; plasma, oral gavage, 10 mg/kg) was 4.6 h. The “Oral F” value (Single dose PK in rats; food admix (FA), 20 mg/kg per day) was 80%, the “Oral F” value (Single dose PK in rats; oral gavage, 10 mg/kg) was 80% and the “Somatostatin receptor 4 (h) [% inhib]” value (Somatostatin receptor 4) was 12 % inhib. The “PDE-5 (h) [% inhib]” value (PDE-5) was 19 % inhib, the “HDAC3 (h) [% inhib]” value (HDAC3) was 1 % inhib and the “5HT2B (h) [% inhib]” value (5HT2B) was -3 % inhib. The “Mic CL r” value [3] was 10/10/10 µL/m/mg prot, the “Histamine H1 receptor (h) [% inhib]” value (Histamine H1 receptor) was 5 % inhib and the “PPARγ (h), agonist mode [% pos ctrl]” value (PPARγ) was 0 % pos ctrl. The “GSK-3A (h) [% inhib]” value (GSK-3A) was -11 % inhib, the “Adenosine A1 respetor (h) [% inhib]” value (Adenosine A1 respetor) was 1 % inhib and the “Alpha2A-adrenoreceptor (h) [% inhib]” value (Alpha2A-adrenoreceptor) was 3 % inhib. The “Beta1-adrenoreceptor (h) [% inhib]” value (Beta1-adrenoreceptor) was 2 % inhib, the “Dopamine D2 receptor (h) [% inhib]” value (Dopamine D2 receptor) was 4 % inhib and the IC50 (plasma ATX) was about 1.47 nM. For the same molecule, the “Angiotensin II receptor 1 (h) [% inhib]” value [4] was 14 % inhib, the “S1P3 (h), agonist mode [% pos ctrl]” value (S1P3) was 8 % pos ctrl and the “MAO-A (h) [% inhib]” value (MAO-A) was -1 % inhib. For the same molecule, the “Sigma (h) [% inhib]” value (Sigma) was 38 % inhib.
